Data reported in publication PMC11084256, “Penifuranone A: A Novel Alkaloid from the Mangrove Endophytic Fungus Penicillium crustosum SCNU-F0006” (International Journal of Molecular Sciences, 2024).
≈ marks a conversion by molar mass, not a printed value. Read-outs that look alike come from different tables or passages of the source.

Legend:
DPPH scavenging assay = conditions: 30 min at 37 °C in the dark, read-out: Radical Scavenging Activity (IC50)
Procedure: The assay for scavenging 1,1-Diphenyl-2-picrylhydrazyl radical 2,2-Diphenyl-1-(2,4,6-trinitrophenyl)hydrazyl (DPPH free radicals) was conducted following a previously established modified protocol. The DPPH was dissolved in ethanol to prepare a 0.5 mmol/L DPPH ethanolic solution (10 mL), which was stored away from light. Subsequently, 100 μL of the DPPH solution was added to each well of a 96-well plate. The sample was prepared into an initial solution of 200 μM with ethanol, and the concentrations of the 1st to 12th wells of the 96-well plate sample group were made by the double dilution method (μM): 200,100, 50, 25, and 12.5 μM. The reaction was monitored by measuring the absorbance at 490 nm using a microplate reader (iMark, Bio-Rad, Hercules, CA, USA) after shaking the reaction for 30 min at 37 °C in the dark. The DPPH radical scavenging activity was determined by a comparison of the absorbance of the samples and a blank control. Vitamin C was used as a positive control at the same concentration as the other samples.

Colletrichum litchi Tra = experiment: Antifungal MIC, broth dilution method; type: cell-based, Colletrichum litchi Trag; conditions: 72 h, means from three parallel experiments, read-out: minimum inhibitory concentration (MIC) against Colletrichum litchi Tra
Procedure: (§1) The bioactivity test screened the following four phytopathogenic microorganisms: Fusarium oxysporum; Penicillium italicum; Banana Colletotrichum gloeosporioides; and Colletrichum litchi Trag. The minimum inhibitory concentration (MIC) was determined using the broth dilution method, with a minor modification. Fungi were removed from the refrigerator and cultured dynamically at a constant temperature in Potato Dextrose Broth at room temperature for 72 h. The fungal liquid was diluted with broth to 0.5 McFarland turbidity. The sample was prepared into an initial solution of 1 mg/mL with dimethyl sulfoxide (DMSO), and the concentrations of the 1st to 12th wells of the 96-well plate sample group were made by the double dilution method (mg/mL): 1, 0.5, 0.25, 0.125, and 0.0625. Each plate also contained a positive control (ciprofloxacin or carbendazim), as well as a sterile control and growth control (containing broth and fungal liquid, no compound). The plates were incubated at 35 °C for 72 h. The use of 10 μL of a solution with a concentration of 11 mg/mL of Esazurin added to each well of a 96-well plate, followed by incubation at 37 °C for 3 h, allowed for the observation of color changes to determine the minimum inhibitory concentration (MIC) values.

[1] = test system: NO production in LPS-stimulated RAW 264.7 cells; experiment: Inhibition of LPS-stimulated NO production, Griess assay; type: cell-based; conditions: Mus musculus, RAW264.7, 24 h, LPS (1 μg/mL)-stimulated RAW 264.7 cells
Procedure: Compounds 1–2 were evaluated for their inhibitory effects on LPS-stimulated NO production in RAW 264.7 cells using the Griess assay. The cell line RAW 264.7, obtained from the Cell Bank of the Chinese Academy of Sciences (CBCAS) in Shanghai, China, was propagated in Dulbecco’s Modified Eagle Medium (DMEM) supplemented with 10% Fetal Bovine Serum (FBS). In the logarithmic growth phase, the cells were digested with trypsin and inoculated into 96-well plates (1 × 10^5/well). After being cultured at 37 °C with 5% CO2 for 12 h, the cells were treated with DMEM containing different concentrations of compounds (0, 3.125, 6.25, 12.5, 25, 50, and 100 μM). Two hours later, the cells were treated with LPS at a concentration of […] (1 μg/mL) and incubated under standard cell culture conditions for a period of 24 h. Fifty microliters of cell supernatant was mixed with an equal volume of Griess reagent (1% anhydrous p-aminobenzene sulfonic acid and 0.1% N-1-naphthalene ethylenediamine hydrochloride in 5% concentrated phosphoric acid). Absorbance was measured with a microplate reader at 540 nm. The IC50 values were calculated using the SPSS 25.0 statistical software analysis package based on the inhibition rate of each group.

[2] = test system: Escherichia coli (ATCC 25922); experiment: Antibacterial MIC, broth dilution method; type: cell-based; conditions: Escherichia coli, ATCC25922, 24 h, mean from three parallel experiments, read-out: minimum inhibitory concentration (MIC) against Escherichia coli
Procedure: (§2) The bioactivity test screened the following four human pathogenic microorganisms: Pseudomonas aeruginosa (ATCC 9027); Salmonella typhimurium (ATCC 6539); Escherichia coli (ATCC 25922); and Staphylococcus aureus (ATCC 12598). The minimum inhibitory concentration was determined using the broth dilution method, with a minor modification. Bacteria were removed from the refrigerator and cultured dynamically at a constant temperature in a Mueller–Hinton Broth at room temperature for 24 h. The bacterial liquid was diluted with broth to 0.5 McFarland turbidity. The sample was prepared into an initial solution of 1 mg/mL with dimethyl sulfoxide (DMSO), and the concentrations of the 1st to 12th wells of the 96-well plate sample group were made by the double dilution method (mg/mL): 1, 0.5, 0.25, 0.125, and 0.0625. Each plate also contained a positive control (ciprofloxacin or carbendazim), as well as a sterile control and growth control (containing broth and bacterial liquid, no compound). The plates were incubated at 35 °C for 24 h. The use of 10 μL of a solution with a concentration of 11 mg/mL of Esazurin added to each well of a 96-well plate, followed by incubation at 37 °C for 3 h, allowed for the observation of color changes to determine the minimum inhibitory concentration (MIC) values.

[3] = test system: Salmonella typhimurium (ATCC 6539); experiment: Antibacterial MIC, broth dilution method; type: cell-based; conditions: Salmonella enterica, 24 h, mean from three parallel experiments, read-out: minimum inhibitory concentration (MIC) against Salmonella typhimurium
Procedure: as §2

[4] = test system: Staphylococcus aureus (ATCC 12598); experiment: Antibacterial MIC, broth dilution method; type: cell-based; conditions: Staphylococcus aureus, ATCC12598, 24 h, mean from three parallel experiments, read-out: minimum inhibitory concentration (MIC) against Staphylococcus aureus
Procedure: as §2

[5] = test system: Pseudomonas aeruginosa (ATCC 9027); experiment: Antibacterial MIC, broth dilution method; type: cell-based; conditions: Pseudomonas aeruginosa, ATCC9027, 24 h, mean from three parallel experiments, read-out: minimum inhibitory concentration (MIC) against Pseudomonas aeruginosa
Procedure: as §2

Fusarium oxysporum = experiment: Antifungal MIC, broth dilution method; type: cell-based; conditions: Fusarium oxysporum, 72 h, means from three parallel experiments, read-out: minimum inhibitory concentration (MIC) against Fusarium oxysporum
Procedure: as §1

Penicillium italicum = experiment: Antifungal MIC, broth dilution method; type: cell-based; conditions: Penicillium italicum, 72 h, means from three parallel experiments, read-out: minimum inhibitory concentration (MIC) against Penicillium italicum
Procedure: as §1

[6] = test system: Banana Colletotrichum gloeosporioides; experiment: Antifungal MIC, broth dilution method; type: cell-based; conditions: Colletotrichum gloeosporioides, 72 h, means from three parallel experiments, read-out: minimum inhibitory concentration (MIC) against Banana Colletotrichum gloeosporioides
Procedure: as §1

[7] = MTT cell viability (cytotoxicity); type: cell-based; conditions: mouse; for IC50 at 24 h: MTT assay, read-out: cytotoxic effects on RAW 264.7 cells (IC50)
Procedure: The MTT method was utilized to assess cell viability. RAW 264.7 cells, at a concentration of 5 × 10^5 cells/mL, were plated in 96-well plates and exposed to lipopolysaccharide (LPS, at 1 μg/mL) in the presence or absence of the test compounds for a duration of 24 h. Following this, 100 μL of a 2 mg/mL MTT solution was introduced into each well, and after a 4 h incubation, the resulting formazan precipitates were dissolved in 100 μL of DMSO. The optical density was then determined at 490 nm using a microplate reader (Multiskan GO, Thermo Scientific, Waltham, MA, USA). The results were presented as the average percentage of cell viability relative to the untreated control group.

[8] = RAW 264.7 cells, MTT, evaluated with cell viability at 50 μM, read-out: Cytotoxicity (CC50)

SMILES | IC50 (DPPH scavenging assay) [µM] | MIC (Colletrichum litchi Tra) [µg/mL] | IC50 [1] [µM] | MIC [2] [µg/mL] | MIC [3] [µg/mL] | MIC [4] [µg/mL] | MIC [5] [µg/mL] | MIC (Fusarium oxysporum) [µg/mL] | MIC (Penicillium italicum) [µg/mL] | MIC [6] [µg/mL] | IC50 at 24 h ([7]; RAW 264.7 cells) [µM] | CC50 at 24 h [7, 8] [µM] | CC50 at 24 h [7] [µM]
C[C@H]1OC(=O)C(CC2=C(O)[C@@H](C)OC2=O)=C1O [Compound 2, (+) - (5R, 5′R) - 3,3′-methylenebistetronic acid] | 120 | 500 (≈ 2.08 mM) | 37 ± 0.88 | 1000 (≈ 4.16 mM) | 1000 (≈ 4.16 mM) | > 1000 | 500 (≈ 2.08 mM) | 250 (≈ 1.04 mM) | 250 (≈ 1.04 mM) | > 1000 | > 50 | > 50 | –
O=c1[nH]c2ccccc2c(-c2ccccc2)c1O [Compound 4, 3-hydroxy-4-phenylquinolin-2(1H)-one] | > 200 | 1000 (≈ 4.21 mM) | – | > 1000 | 1000 (≈ 4.21 mM) | 1000 (≈ 4.21 mM) | 500 (≈ 2.11 mM) | 250 (≈ 1.05 mM) | 250 (≈ 1.05 mM) | > 1000 | < 50 | < 50 | –
C[C@@H]1C[C@H]2[C@@H]3CCC4=CC(=O)C=C[C@]4(C)[C@@]3(F)[C@@H](O)C[C@]2(C)[C@@]1(O)C(=O)CO [Dexamethasone, reference compound] | – | – | 58.2 ± 1.74 | – | – | – | – | – | – | – | – | > 50 | –
COc1ccc2c(c1)c(CC(=O)O)c(C)n2C(=O)c1ccc(Cl)cc1 [Indomethacin, reference compound] | – | – | 35.8 ± 5.7 | – | – | – | – | – | – | – | – | – | > 50
O=C1O[C@H]([C@@H](O)CO)C(O)=C1O [Vitamin C, reference compound] | 68.4 | – | – | – | – | – | – | – | – | – | – | – | –
